One substance from patent US20210038668A1, “TRADITIONAL CHINESE MEDICINE COMPOSITION FOR PREVENTING AND/OR TREATING ISCHEMIC REPERFUSION INJURY” (TASLY PHARMACEUTICAL GROUP CO., LTD., priority 2018, published 2021) can be followed below.

For the assay, the system named is mice with carotid artery thrombus. The experiment in a line: Survival rate within 24 hours after administration. As to conditions: tPA 10 mg/kg alone. It is filed as in vivo, C57BL/6 mice. How it is done:
Mice were anesthetized via intraperitoneal injection by pentobarbital sodium (2%, 45 mg/kg), and neck kin was sterilized. A median incision was cut on the neck, exposed and isolated to obtain arteria carotis communis; a waterproof cushion was used to isolate arteria carotis communis with the length of about 2.5-3 mm from surrounding tissues. The isolated arteria carotis communis was wrapped by a filter paper soaked by 10% FeCl3 for about 1 mm (width), and the filter paper was removed 3 minutes later, the outside of blood vessel was washed by 0.9% normal saline. The waterproof cushion was removed. The neck incision was sutured. The start of Fe3+ stimulation was defined as the beginning of ischemia, and those mice meeting the following conditions were selected into the group: the blood vessel was blocked at the maximum diameter of the neck thrombus 10 minutes after ischemia; the blood flow of the carotid artery distal end was less than 20% of the base value 15 minutes after ischemia; and the thrombus was stable 4.5 hours after ischemia (before reperfusion); the carotid artery vessel at 60% and more of the diameter was blocked by the maximum diameter of the thrombus.
Mice were treated by medicaments or normal saline according to random grouping results 4.5 hours after ischemia. Mice femoral vein was intubated, and left femoral vein was injected tPA (tissue plasminogen activator) or normal saline; right femoral vein was injected the traditional Chinese medicinal composition of the present invention or normal saline; 10% of the total dose was injected via an injection pump, and the rest 90% were continuously injected intravenously for 1 hour with the rate of 0.1 ml/h. Three proportion groups were selected to the traditional Chinese medicinal composition of the present invention respectively below:
The survival rate, neurological scoring, change of carotid artery ischemia size and change of cerebral blood flow perfusion of mice after reperfused for 24 hours were recorded; and the optimal drug concentration was selected for further analysis.

[1] abbreviates: T141 12 mg/kg, T582 15 mg/kg each + tPA 10 mg/kg.
Setting [2] is: T541 20 mg/kg, T141 12 mg/kg, T582 15 mg/kg each + tPA 10 mg/kg.

Consider “tPA: tissue-type plasminogen activator (tPA) for thrombolysis”, for which, under setting [1], the “survival rate (%), 6 h after administration” value is recorded as 70.00% and the “survival rate (%), 12 h after administration” value came out at 60.00%. For the setting “T541 20 mg/kg + tPA 10 mg/kg”, the “survival rate (%), 18 h after administration” value stood at 50.00%. Further, under setting [2], the “survival rate (%), 0 h after administration” value is on record as 100.00% and the “survival rate (%), 24 h after administration” value came to 50%.
